Changes are numbered by the printed parent chain.
Experiments:
Assay type in all cases: biochemical
PPIP5K2^KD E192G mutant = molecular target: T1, PPIP5K2^KD E192G mutant (Homo sapiens, UniProt O43314, E192G); test: ATPase activity of E192G mutant
T1 construct: The kinase domain of human PPIP5K2 (PPIP5K2^KD; residues 1–366); made in house
T1 sequence (O43314 1-366 E192G): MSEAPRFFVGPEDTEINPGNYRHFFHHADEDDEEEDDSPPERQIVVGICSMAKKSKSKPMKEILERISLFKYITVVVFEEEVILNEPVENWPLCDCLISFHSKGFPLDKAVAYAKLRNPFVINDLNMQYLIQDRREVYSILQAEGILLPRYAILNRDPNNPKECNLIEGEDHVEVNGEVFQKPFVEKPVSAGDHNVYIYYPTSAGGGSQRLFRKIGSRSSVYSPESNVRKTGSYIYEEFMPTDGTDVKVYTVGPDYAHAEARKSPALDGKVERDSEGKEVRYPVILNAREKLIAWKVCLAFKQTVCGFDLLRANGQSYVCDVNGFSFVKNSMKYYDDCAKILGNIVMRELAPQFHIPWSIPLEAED
Protocol: (§1) The initial InsP6 concentration was either 500 nM, 70 nM, or 40 nM. Various concentrations of 2,5-di-O-Bn-InsP4 were present as indicated. Radioactivity was assessed using an in-line Flo1 detector. The ADP-driven dephosphorylation of 100 nM 1,5-[PP]2-InsP4 by PPIP5K2^KD was usually determined by a luminescence-based assay of ATP accumulation ([Riley et al., 2012; Weaver et al., 2013]). The IC50 values were determined using GraphPad Prism v6.02 (n ≥ 3). In some experiments, 1,5-[PP]2-[^3H]InsP4 dephosphorylation by PPIP5K2^KD was assayed in 50 μl buffer containing 50 mM KCl, 20 mM HEPES pH 7.0, 7 mM MgSO4, 5 mM ADP, 1 mM EDTA. Reactions were then quenched, neutralized, and analyzed with HPLC using a Partisphere SAX column ([Weaver et al., 2013]); 1 ml fractions were collected for liquid scintillation spectrometry. The ATPase activity of PPIP5K2^KD (10–270 μg/ml) was assayed from Pi release following incubation at 37°C for 120–180 min in 20 μl reaction mixtures containing 20 mM Tris/HCl, pH 7.5, 10 mM ATP, 100 mM KCl, 0.1 mM EDTA, and 13 mM MgCl2.
(§2) Protein Expression, Purification, Crystallization and Structure Determination […]
(§3) The structure was further manually rebuilt with COOT and refined with PHENIX and
(§4) REFMAC from the CCP4 package. Ligand topology and parameter files were prepared using
(§5) the PRODRG server. The molecular graphics representations were prepared with the program
(§6) PyMol (Schrödinger, LLC). The 2D ligand-protein interaction diagrams were generated by
(§7) LigPlot+. Atomic coordinates and structure factors have been deposited with the Protein Data
(§8) Bank with accession codes: 4NZM, 4NZN, 4NZO.
(§9) Mutants were generated using a site-directed mutagenesis kit (Stratagene). Pairs of complementary
primers were designed as shown below, with mutagenic primers underlined (only 5’ primers are
All mutated constructs were sequenced. Mutant proteins were expressed and purified as for wild-

PPIP5K2^KD H194A mutant = molecular target: T2, PPIP5K2^KD H194A mutant (Homo sapiens, UniProt O43314, H194A); test: ATPase activity of H194A mutant; conditions: data not shown
T2 construct: The kinase domain of human PPIP5K2 (PPIP5K2^KD; residues 1–366); made in house
T2 sequence (O43314 1-366 H194A): T1 sequence (O43314 1-366 E192G) with G192E, H194A
Protocol: as §1

PPIP5K2^KD K103A mutant = molecular target: T3, PPIP5K2^KD K103A mutant (Homo sapiens, UniProt O43314, K103A); test: ATPase activity of K103A mutant; conditions: Figures 7B and 7C
T3 construct: The kinase domain of human PPIP5K2 (PPIP5K2^KD; residues 1–366); made in house
T3 sequence (O43314 1-366 K103A): T1 sequence (O43314 1-366 E192G) with K103A, G192E
Protocol: as §1, §2, §3, §4
the PRODRG server. The molecular graphics representations were prepared with the program […]

PPIP5K2^KD E192Q mutant = molecular target: T4, PPIP5K2^KD E192Q mutant (Homo sapiens, UniProt O43314, E192Q); test: ATPase activity of E192Q mutant; conditions: 25 μM, Figure 7E
T4 construct: The kinase domain of human PPIP5K2 (PPIP5K2^KD; residues 1–366); made in house
T4 sequence (O43314 1-366 E192Q): T1 sequence (O43314 1-366 E192G) with G192Q
Protocol: as §1
Protein Expression, Purification, Crystallization and Structure Determination
Full-length human IP6K2, the kinase domain of human PPIP5K2 (PPIP5K2KD; residues 1-
366), and the N-terminally truncated domain used for the crystallography studies (residues
41-366) were all sub-cloned, expressed and purified as before (Wang et al., 2012; Weaver et
al., 2013). […]
as §3, §4, §5, §6, §7, §8, §9
primers were designed as shown below, with mutagenic primers underlined (only 5’ primers are […]

In the case of `O=C(CP(=O)(O)O)O[C@@H]1[C@@H](OP(=O)(O)O)[C@H](OP(=O)(O)O)[C@H](OCc2ccccc2)[C@H](OP(=O)(O)O)[C@H]1OP(=O)(O)O` [compound 2, 2-O-benzyl-5-O-α-phosphonoacetyl-myo-inositol 1,3,4,6-tetrakisphosphate], the “rate of ligand-stimulated ATPase activity vs wild-type (in words)” value (“rate … vs wild-type (in words)” for short) (PPIP5K2^KD E192G mutant) is reported as “neither of these particular mutations altered the rate”, the “ATPase activity in the presence of analog (in words)” value (PPIP5K2^KD H194A mutant) is reported as “did not exhibit any detectable ATPase activity” and the “analog-activated ATPase activity compared to wild-type enzyme (in words)” value (PPIP5K2^KD K103A mutant) is reported as “only a slight reduction”. For the same molecule, the “rate … vs wild-type (in words)” value (PPIP5K2^KD E192Q mutant) was “neither of these particular mutations altered the rate”.

For `O=P(O)(O)O[C@@H]1[C@@H](OCc2ccccc2)[C@H](OP(=O)(O)O)[C@@H](OP(=O)(O)O)[C@@H](OCc2ccccc2)[C@H]1OP(=O)(O)O` [compound 10, 2,5-di-O-Bn-InsP4], the “rate … vs wild-type (in words)” value (PPIP5K2^KD E192G mutant) was “neither of these particular mutations altered the rate”, the “ATPase activity in the presence of analog (in words)” value (PPIP5K2^KD H194A mutant) was “did not exhibit any detectable ATPase activity” and the “analog-activated ATPase activity compared to wild-type enzyme (in words)” value (PPIP5K2^KD K103A mutant) was “only a slight reduction”. The “rate … vs wild-type (in words)” value (PPIP5K2^KD E192Q mutant) was “neither of these particular mutations altered the rate”.

Reference: publication PMC4085797, “Synthetic Inositol Phosphate Analogs Reveal that PPIP5K2 Has a Surface-Mounted Substrate Capture Site that Is a Target for Drug Discovery” (Chemistry & Biology, 2014)
